According to patent US20110237659A1, “CHROMENONE DERIVATIVES AS TRPV3 ANTAGONISTS” (GLENMARK PHARMACEUTICALS S.A., priority 2008, published 2011):

Molecular target: T1, Human TRPV3 (Homo sapiens, UniProt Q8NET8)
T1 construct: expressed in transfected cells; host or cells: CHO cells
T1 sequence (Q8NET8 1-790): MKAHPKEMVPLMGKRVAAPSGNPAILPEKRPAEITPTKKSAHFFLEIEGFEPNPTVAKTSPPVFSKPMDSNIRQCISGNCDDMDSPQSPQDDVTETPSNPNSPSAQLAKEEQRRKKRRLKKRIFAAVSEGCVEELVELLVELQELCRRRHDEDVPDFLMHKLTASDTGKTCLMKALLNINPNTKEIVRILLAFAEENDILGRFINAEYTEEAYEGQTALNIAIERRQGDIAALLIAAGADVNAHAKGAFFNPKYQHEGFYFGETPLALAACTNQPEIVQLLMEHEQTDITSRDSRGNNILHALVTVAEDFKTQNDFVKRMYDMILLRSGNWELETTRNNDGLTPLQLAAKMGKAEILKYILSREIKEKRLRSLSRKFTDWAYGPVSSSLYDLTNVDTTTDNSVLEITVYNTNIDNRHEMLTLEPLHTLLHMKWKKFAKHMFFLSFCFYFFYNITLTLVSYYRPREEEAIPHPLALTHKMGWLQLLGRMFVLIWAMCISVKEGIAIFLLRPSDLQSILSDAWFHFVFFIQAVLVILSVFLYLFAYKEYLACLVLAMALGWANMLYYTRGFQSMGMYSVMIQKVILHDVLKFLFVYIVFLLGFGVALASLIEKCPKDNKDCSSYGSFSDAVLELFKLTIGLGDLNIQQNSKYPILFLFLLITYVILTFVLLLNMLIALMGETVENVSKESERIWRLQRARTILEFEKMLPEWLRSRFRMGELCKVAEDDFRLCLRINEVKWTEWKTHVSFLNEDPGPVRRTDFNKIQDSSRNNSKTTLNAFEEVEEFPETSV
Test: 45Calcium uptake assay: inhibition of 2-APB induced cellular uptake of radioactive calcium in human TRPV3 expressing CHO cells
Assay type: cell-based
Details: 2-APB 500 μM; for inhibition at 1 µM: 1.0 μM test compound, read-out: Percentage inhibition at 1.0 μM; for inhibition at 10 µM: 10.0 μM test compound, read-out: Percentage inhibition at 10.0 μM
Description: The illustrative examples of the present invention are screened for TRPV3 activity according to a modified procedure described in (a) Tóth, A. et al. Life Sciences 2003, 73, 487-498. (b) McNamara C, R. et al. Proc. Natl. Acad. Sci. U.S.A., 2007, 104, 13525-13530. The screening of the compounds can be carried out by other methods and procedures known to persons skilled in the art.
Screening for TRPV3 Antagonist Using the ^45Calcium Uptake Assay
The inhibition of TRPV3 receptor activation was followed as inhibition of 2-aminoethxydiphenylborate (2-APB) induced cellular uptake of radioactive calcium. Test compounds were dissolved in dimethyl sulfoxide (DMSO) to prepare 20 mM stock solution and then diluted using plain medium with DMEM/F-12 containing 1.8 mM CaCl2 to get desired concentration. Final concentration of DMSO in the reaction was 0.5% (v/v). Human TRPV3 expressing CHO cells were grown in DMEM/F-12 medium with 10% FBS, 1% penicillin-streptomycin solution, 400 μg/mL of G-418. Cells were seeded 24 h prior to the assay in 96 well plates so as to get ˜50,000 cells per well on the day of experiment. Cells were treated with test compounds for 10 minutes followed by addition of 2-APB at a final concentration of 500 μM and 5 μCi/mL ^45Ca^+2 for 4 minutes. Cells were washed and lysed using buffer containing 1% Triton X-100, 0.1% deoxycholate and 0.1% SDS. Radioactivity in the lysate was measured in Packardt Top count after addition of liquid scintillant. Concentration response curves were plotted as a % of maximal response obtained in the absence of test antagonist. IC50 value was calculated from concentration response curve by nonlinear regression analysis using GraphPad PRISM software.
Percentage inhibition at concentrations of 1.0 μM and 10.0 μM are given in the table along with IC50 (nM) values for selected examples.

inhibition at 1 µM [%]	inhibition at 10 µM [%]	IC50 [nM]	Structure (SMILES)
96	98.7	150 to 1000	COc1cccc(/C=C/c2oc3cc(F)ccc3c(=O)c2-c2ccc(C#N)cc2)c1OCCC(F)(F)F [Example 14, 4-(7-Fluoro-2-{(E)-2-[3-methoxy-2-(3,3,3-trifluoropropoxy)phenyl]-1-ethenyl}-4-oxo-4H-3-chromenyl)benzonitrile]
79.3	94.1	150 to 1000	COc1cccc(/C=C/c2oc3ccc(F)cc3c(=O)c2-c2ccc(C#N)cc2)c1OCC1CC1 [Example 15, 4-{2-[(E)-2-(2-Cyclopropylmethoxy-3-methoxyphenyl)-1-ethenyl]-6-fluoro-4-oxo-4H-3-chromenyl}benzonitrile]
59.4	74.4		COc1cccc(/C=C/c2oc3ccc(F)cc3c(=O)c2-c2ccc(C#N)cc2)c1OC1CCCC1 [Example 16, 4-{2-[(E)-2-(2-Cyclopentyloxy-3-methoxyphenyl)-1-ethenyl]-6-fluoro-4-oxo-4H-3-chromenyl}benzonitrile]
78.2	89.8	150 to 1000	COc1cccc(/C=C/c2oc3ccc(F)cc3c(=O)c2-c2ccc(C#N)cc2)c1OCC1CCC1 [Example 17, 4-{2-[(E)-2-(2-Cyclobutylmethoxy-3-methoxyphenyl)-1-ethenyl]-6-fluoro-4-oxo-4H-3-chromenyl}benzonitrile]
55.2	71.7		COc1cccc(/C=C/c2oc3ccc(F)cc3c(=O)c2-c2ccc(C#N)cc2)c1OCCC(C)C [Example 18, 4-{6-Fluoro-2-[(E)-2-(2-isopentyloxy-3-methoxyphenyl)-1-ethenyl]-4-oxo-4H-3-chromenyl}benzonitrile]
74.3	78.5	< 50	COc1cccc(/C=C/c2oc3ccc(F)cc3c(=O)c2-c2ccc(C#N)cc2)c1OCC(C)(C)C [Example 20]
76.4	87.7	150 to 1000	COc1cccc(/C=C/c2oc3ccc(Cl)cc3c(=O)c2-c2ccc(C#N)cc2)c1OCC1CC1 [Example 21, 4-{6-Chloro-2-[(E)-2-(2-cyclopropylmethoxy-3-methoxyphenyl)-1-ethenyl]-4-oxo-4H-3-chromenyl}benzonitrile]
40	73		COc1cccc(/C=C/c2oc3c(F)cc(F)cc3c(=O)c2-c2ccc(C#N)cc2)c1OCC1CC1 [Example 22, 4-{2-[(E)-2-(2-Cyclopropylmethoxy-3-methoxyphenyl)-1-ethenyl]-6,8-difluoro-4-oxo-4H-3-chromenyl}benzonitrile]
75.8	86.7	< 50	COc1cccc(/C=C/c2oc3cc(F)c(F)cc3c(=O)c2-c2ccc(C#N)cc2)c1OC1CCCC1 [Example 23, 4-{2-[(E)-2-[2-Cyclopentyloxy-3-methoxyphenyl)-1-ethenyl]-6,7-difluoro-4-oxo-4H-3-chromenyl}benzonitrile]

Structure (SMILES)	inhibition at 1 µM [%]	inhibition at 10 µM [%]	IC50 [nM]
COc1cccc(/C=C/c2oc3cc(F)ccc3c(=O)c2-c2ccc(C#N)cc2)c1OCC(C)C [Example 13, 4-{7-Fluoro-2-[(E)-2-(2-isobutoxy-3-methoxyphenyl)-1-ethenyl]-4-oxo-4H-3-chromenyl}benzonitrile]	92.9	96.7	50 to 150
COc1cccc(/C=C/c2oc3ccc(F)cc3c(=O)c2-c2ccc(C#N)cc2)c1OCC(C)C [Example 19, 4-{6-Fluoro-2-[(E)-2-(2-isobutoxy-3-methoxyphenyl)-1-ethenyl]-4-oxo-4H-3-chromenyl}benzonitrile]	70.2	87.8	< 50
